{"source": "paper PMC6958661", "about": "“Regulatory Role of PlaR (YiaJ) for Plant Utilization in Escherichia coli K-12” (Scientific Reports, 2019)", "biological_target": "T1, PlaR (YiaJ) (Escherichia coli, UniProt P37671)", "T1 sequence (P37671 1-282)": "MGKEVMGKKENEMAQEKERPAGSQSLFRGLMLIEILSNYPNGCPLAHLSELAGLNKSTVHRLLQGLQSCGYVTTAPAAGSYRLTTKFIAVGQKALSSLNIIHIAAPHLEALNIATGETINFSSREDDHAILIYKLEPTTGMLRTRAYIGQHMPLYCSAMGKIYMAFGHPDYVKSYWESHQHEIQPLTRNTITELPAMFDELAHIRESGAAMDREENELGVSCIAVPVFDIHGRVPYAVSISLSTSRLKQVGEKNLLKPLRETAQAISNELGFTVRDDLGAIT", "experiment": "gel shift assay, dissociation of PlaR from yiaK promoter DNA", "format": "binding", "details": "2.5 uM PlaR, yiaK promoter probe, 1-25 mM compound, 37 °C, pH 7.8, 150 mM NaCl, 3 mM Mg acetate; effector (inducer)", "data": [{"smiles": "O=C1O[C@H]([C@@H](O)CO)C(O)=C1O", "note": "[L-ascorbate]", "values": [{"measurement": "gel shift assay, dissociation of PlaR from yiaK promoter DNA", "result": "Both the metabolites induced a dose-dependent dissociation in vitro of PlaR from the PlaR-yiaK promoter"}]}, {"smiles": "O=C(O)[C@H]1O[C@H](O)[C@H](O)[C@@H](O)[C@H]1O", "note": "[α-D-galacturonate]", "values": [{"measurement": "gel shift assay, dissociation of PlaR from yiaK promoter DNA", "result": "Both the metabolites induced a dose-dependent dissociation in vitro of PlaR from the PlaR-yiaK promoter"}]}]}
